Test results: patent publication US9284297B2, “Halofuginone analogs for inhibition of tRNA synthetases and uses thereof” (President and Fellows of Harvard College, priority 2008, dated 2016)

Tests used:
[1] = system: Human primary dermal fibroblasts; assay: Inhibition of cell spreading in a fibroblast model; format: cell-based; set-up: key: “+++” vs. “++” vs. “+” in general denotes ˜4-fold differences in potency; “+++” vs. “++” vs. “+” in general denotes ˜4-fold differences in potency; “+++” vs. “++” vs. “+” in general denotes ˜4-fold differences in potency; “−” denotes no activity at any dose tested, up to 1000× the effective dose of halofuginone; conditions: spreading of cells assessed by light microscopy 28 hours after treatment
Experimental: The ability of halofuginone and analogs thereof to inhibit the spreading of freshly plated primary dermal fibroblasts was examined. Human primary dermal fibroblasts were replated and halofuginone added immediately after replating; spreading of cells was assessed by light microscopy 28 hours after treatment with compound. “+++” vs. “++” vs. “+” in general denotes ˜4-fold differences in potency. “−” denotes no activity at any dose tested, up to 1000× the effective dose of halofuginone.

[2] = system: Th17 differentiation of CD4+ CD25− T cells; assay: Th17 differentiation of CD4+ CD25− T cells (IL-17+ IFNγ− cells, intracellular cytokine staining); conditions: activated in the presence of TGFβ plus IL-6, intracellular cytokine staining day 4
Experimental: Purified CD4^+ CD25^− T cells were activated in vitro as previously described (Djuretic et al., Nat. Immunol. 8:145, 2007) using 0.3 μg/ml hamster anti-mouse CD3 (clone 145-2C11) (ATCC, Manassas, Va.) and 0.5 μg/ml hamster anti-mouse CD28 (BD Pharmingen, San Jose, Calif.). Activated cell cultures were differentiated using the following combinations of cytokines and antibodies: iTreg—recombinant human TGFβ1 (3 ng/ml—R&D systems, Minneapolis, Minn.), Th17-TGFβ1 (3 ng/ml) plus recombinant mouse IL-6 (30 ng/ml—R&D systems). […] Human IL-2 supernatant (National Cancer Institute) was used in culture at 0.01 U/ml and was added at 48 hours-post activation when T cells were split into tissue culture wells lacking CD3 and CD28 antibodies, with the exception of Th17 cultures that were maintained in the absence of exogenous IL-2. […] All reagents (see below) were added at the time of T cell activation and again at 48 hours post activation unless indicated otherwise.
For detection of intracellular cytokines in murine cells, cultured T or B cells were stimulated with 10 nM PMA (Sigma) and 1 mM ionomycin (Sigma) for 4-5 hours in the presence of 10 mM brefeldin A (Sigma). Stimulated cells were harvested, washed with PBS and fixed with PBS plus 4% paraformaldehyde at room temperature for 20 minutes. Cells were then washed with PBS, permeabilized with PBS supplemented with 1% BSA and 0.5% saponin (Sigma) at room temperature for 10 minutes before cytokine-specific antibodies were added and incubated with cells for an additional 20 minutes at room temperature. […] All stained cells were stored at 4° C. in PBS plus 1% paraformaldehyde prior to FACS analyses.
All cell surface staining was performed in FACS buffer (PBS/2% FBS/0.1% NaN3) and antibodies were incubated with cells on ice for 20-30 minutes. Cells were washed with FACS buffer and fixed with FACS buffer plus 1% paraformaldehyde prior to data acquisition.

[3] = system: CD4+ CD25− T cells (Th1, Th2, iTreg differentiation, proliferation, CD25), CD8+ T cells, B cells; assay: T and B cell activation, proliferation and Th1, Th2, iTreg differentiation; format: cell-based, murine; conditions: polarizing cytokine conditions; IFNγ, IL-4, Foxp3 expression
Experimental: Cytokines secreted into media supernatant were measured using the mouse Th1/Th2 cytometric bead array (CBA—BD Pharmingen) in accordance with manufacturers instructions.

[4] = system: translation of luciferase RNA in rabbit reticulocyte lysate; assay: Translation of a luciferase RNA reporter in rabbit reticulocyte lysate; format: biochemical; set-up: key to Translational inhibition: “+++” vs. “++” vs. “+” in general denotes ˜4-fold differences in potency; “+++” vs. “++” vs. “+” in general denotes ˜4-fold differences in potency; “+++” vs. “++” vs. “+” in general denotes ˜4-fold differences in potency; “−” denotes no activity at any dose tested, up to 1000× the effective dose of halofuginone; conditions: luciferase RNA reporter
Experimental: To distinguish these possibilities, the effect of halofuginone on protein translation was examined in an in vitro system (rabbit reticulocyte lysate) in which amino acids are already present at levels adequate to support protein synthesis. […] Distinct tRNA synthetases catalyze the charging of individual tRNA species with their cognate amino acid. To determine which tRNA synthetase is inhibited by halofuginone, several amino acid mixtures were added to the in vitro translation system to determine which, if any, could reverse the inhibition of translation by halofuginone (FIG. 3). […] To examine whether proline could specifically rescue the effect of halofuginone in intact cells, the ability of each amino acid to reverse the effect of halofuginone on eIF2alpha phosphorylation in T-cells or to prevent halofuginone inhibition of Th17 differentiation was tested (FIG. 4). […] Inhibition of EPRS with compounds of the current invention can inhibit Th17 differentiation.
Translation in vitro was performed using rabbit reticulocyte lysates and luciferase mRNA as template. Translation was measured as arbitrary units of luciferase activity using a luminometer based luminescence assay. Log scale presentation of background-subtracted data is shown.
Inhibition of translation of luciferase RNA by halofuginone and analogs thereof was measured as described in FIG. 3 above. Results are shown of translation of a luciferase RNA reporter in a rabbit reticulocyte lysate. “+++” vs. “++” vs. “+” in general denotes ˜4-fold differences in potency. “−” denotes no activity at any dose tested, up to 1000× the effective dose of halofuginone.

[5] = system: eIF2α phosphorylation and ATF4 protein levels in CD4+ CD25− T cells; assay: Amino acid response (AAR) pathway activation in T cells, western blot; format: cell-based, mice; conditions: 4 hours
Experimental: CD4+ CD25− T cells purified from wild type of GCN2−/− mice were activated through TCR for 4 hours in the presence of halofuginone (10 nM) or 9 (MAZ1310, 10 nM). Whole cell lysates were analyzed by SDS PAGE/Western blot and antibodies indicated.
Naïve T-cells were treated to stimulate the T-cell receptor (TCR) in the presence or absence of 10 nM halofuginone in the presence of 1 mM added amino acid, and then assayed for eIF2alpha activity phosphorylation by SDS PAGE/Western blot.
HF induced detectable eIF2α phosphorylation at 2.5 nM, and this effect plateaued at 5-10 nM HF (FIG. 7D). […] AAR activation was a general consequence of HF treatment; HF induced eIF2α phosphorylation, not only in T cells activated in Th17-priming conditions, but also in resting naïve T cells and T cells activated in ThN, Th1, Th2, and iTreg polarizing conditions (FIG. 7F). […] Thus, the rapid activation of the AAR pathway by HF could underlie both its selective inhibition of Th17 differentiation and its effects on fibroblasts (Pines and Nagler, Gen. Pharmacol. 30:445, 1998).
To delineate the stress response pathway activated by HF, the effects of amino acid starvation with those of tunicamycin (an inducer of ER stress) or HF treatment during T cell activation were compared.
Whole cell lysates were generated from T cells activated for the indicated times. For STAT3 and Smad2/3 western blots cells were harvested, washed in PBS and lysed in 50 mM Tris, pH 7.4, 0.1% SDS, 1% Triton-X100, 140 mM NaCl, 1 mM EDTA, 1 mM EGTA supplemented with protease inhibitors tablets (Roche, Germany), 1 mM NaF and 1 mM Na3VO4. For eIF2α and ATF4 western blots, cells were harvested as above and lysed in 50 mM Tris, pH 7.4, 2% SDS, 20% glycerol and 2 mM EDTA supplemented with protease and phosphatase inhibitors as above. All lysates were cleared via centrifugation and 15-30 μg of protein was resolved by SDS-PAGE. Protein was transferred to nitrocellulose membranes, blocked and blotted using specific antibodies. Antibodies used for western blot analysis were anti-phospho-Smad2, anti-STAT3 (pY705), anti-STAT3, anti-eIF2α^pS51, anti-eIF2α (all from Cell Signaling Technology, Danvers, Mass.). Anti-ATF4/CREB2 and anti-β-actin were purchased from Santa Cruz Biotechnology (Santa Cruz, Calif.). HRP-conjugated secondary antibodies were all purchased from Sigma, with the exception of HRP-conjugated anti-armenian hamster antibody (Jackson Immunoresearch, West Grove, Pa.).

[6] = system: Differentiation of primary naïve T-cells into Th17 cells; assay: Inhibition of Th17 differentiation of primary naïve T-cells by halofuginone analogs; format: cell-based, murine; set-up: key: “+++” vs. “++” vs. “+” in general denotes ˜4-fold differences in potency; “+++” vs. “++” vs. “+” in general denotes ˜4-fold differences in potency; “+++” vs. “++” vs. “+” in general denotes ˜4-fold differences in potency; “−” denotes no activity at any dose tested, up to 1000× the effective dose of halofuginone; conditions: T-cell receptor stimulation+IL-6+TGFb
Experimental: Naïve T-cells were stimulated to differentiate in the presence or absence of 10 nM halofuginone, with 1 mM of the indicated amino acids added to the medium, and stained for Th17 differentiation on day 4. Naïve murine T cells were activated in the presence or absence of TGFβ plus IL-6 as indicated, expanded in for 4 days and restimulated with PMA and ionomycin for intracellular cytokine staining. […] Bars indicate percentage of cells differentiation as Th17 as indicated by IL17 expression.
The effect of different halofuginone and analogs thereof on differentiation of naïve T-cells was assayed as described in legend for FIG. 4 above. Differentiation of primary naïve T-cells into Th17 cells following T-cell receptor stimulation+IL-6+TGFb. “+++” vs. “++” vs. “+” in general denotes ˜4-fold differences in potency. “−” denotes no activity at any dose tested, up to 1000× the effective dose of halofuginone.

Row | Compound | Fibroblast inhibition [1] | inhibition of Th17 differentiation / IL-17 expression (in words) [2] | Translational inhibition [4] | also measured
1 | C[Si](C)(C)C#Cc1cc2ncn(CC(=O)CC3NCCCC3O)c(=O)c2cc1Cl (stereo not shown) [Compound 5, 6-chloro-3-(3-((2S/R,3R/S)-3-hydroxypiperidin-2-yl)-2-oxopropyl)-7-((trimethylsilyl)ethynyl)quinazolin-4(3H)-one] | ++ |  |  | 
2 | N[C@H](CO)Cc1c[nH]c2ccccc12 [L-tryptophanol] |  | impaired IL-17 production |  | inhibition of Th17 differentiation / IL-17 expression (in words) ([2]; listed as tryptophanol): inhibited Th17 differentiation
3 | N/N=C(/CC1NCCCC1O)Cn1cnc2cc(Br)c(Cl)cc2c1=O (stereo not shown) [MAZ1686] |  | selectively inhibit the differentiation of Th17 cells |  | effect on Th1, Th2, iTreg differentiation [3]: without inhibiting Th1 differentiation
4 | O=C(CC1NCCCC1O)Cn1cnc2cc(Br)c(Cl)cc2c1=O (single isomer, unassigned) [L-enantiomer] |  | completely inactive |  | 
5 | C[C@@H]1C[C@H](C)C[C@H](C)[C@@H](O)CC(=O)O[C@H]([C@@H]2CCC[C@H]2C(=O)O)C/C=C/C=C(/C#N)[C@H](O)[C@@H](C)C1 [Borrelidin] |  | inhibits Th17 differentiation |  | effect on Th1, Th2, iTreg differentiation [3]: without affecting Th1, Th2, or Treg differentiation or cell number
6 | COC(=O)CCCCC(=O)N/N=C(/CC1NCCCC1O)Cn1cnc2cc(Br)c(Cl)cc2c1=O (stereo not shown) [Compound 12, methyl 6-((Z)-2-(1-(7-bromo-6-chloro-4-oxoquinazolin-3(4H)-yl)-3-((2S/R,3R/S)-3-hydroxypiperidin-2-yl)propan-2-ylidene)hydrazinyl)-6-oxohexanoate] | ++ |  | ++ | 
7 | NCCOCCOCCNC(=O)CCCC#Cc1cc2ncn(CC(=O)CC3NCCCC3O)c(=O)c2cc1Cl (stereo not shown) [Compound 8, N-(2-(2-(2-aminoethoxy)ethoxy)ethyl)-6-(6-chloro-3-(3-((2S/R,3R/S)-3-hydroxypiperidin-2-yl)-2-oxopropyl)-4-oxo-3,4-dihydroquinazolin-7-yl)hex-5-ynamide] | + |  | + | 
8 | CCOP(=O)(OCC)OC1CCCNC1CC(=O)Cn1cnc2cc(Br)c(Cl)cc2c1=O (stereo not shown) [Compound 16, (2S/R,3R/S)-2-(3-(7-bromo-6-chloro-4-oxoquinazolin-3(4H)-yl)-2-oxopropyl)piperidin-3-yl diethyl phosphate] | − |  | − | 
9 | CC(C)(C)OC(=O)N1CCCC(O)C1CC(=O)Cn1cnc2cc(Br)c(Cl)cc2c1=O (stereo not shown) [Compound 9, (2S/R,3R/S)-tert-butyl 2-(3-(7-bromo-6-chloro-4-oxoquinazolin-3(4H)-yl)-2-oxopropyl)-3-hydroxypiperidine-1-carboxylate] | − |  | − | phosphorylation of Ser51 of eIF2alpha, GCN2 dependence ([5]; 10 nM, T cells from wild type or GCN2−/− mice): inactive; Inhibition of Th17 differentiation [6]: −
10 | N-(6-((Z)-2-(1-(7-bromo-6-chloro-4-oxoquinazolin-3(4H)-yl)-3-((2S/R,3R/S)-3-hydroxypiperidin-2-yl)propan-2-ylidene)hydrazinyl)-6-oxohexyl)-6-(5-(2-oxohexahydro-1H-thieno[3,4-d]imidazol-4-yl)pentanamido)hexanamide [Compound 13] | ++ |  | ++ | Inhibition of Th17 differentiation [6]: ++
11 | O=C(CC1NCCCC1O)Cn1cnc2cc(Br)c(Cl)cc2c1=O (single isomer, unassigned) [D-enantiomer of HF] |  | inhibited IL-17 expression more potently than a racemic mixture |  | 
12 | C#Cc1cc2ncn(CC(=O)CC3NCCCC3O)c(=O)c2cc1Cl (stereo not shown) [Compound 7, 6-chloro-7-ethynyl-3-(3-((2S/R,3R/S)-3-hydroxypiperidin-2-yl)-2-oxopropyl)quinazolin-4(3H)-one] | +++ |  | +++ | Inhibition of Th17 differentiation [6]: +++
13 | CC(=O)N/N=C(/CC1NCCCC1O)Cn1cnc2cc(Br)c(Cl)cc2c1=O (stereo not shown) [Compound 14, (Z)—N′-(1-(7-bromo-6-chloro-4-oxoquinazolin-3(4H)-yl)-3-((2S/R,3R/S)-3-hydroxypiperidin-2-yl)propan-2-ylidene)acetohydrazide] |  |  | ++ | 
14 | tunicamycin |  | had little influence on IL-17 expression in T cells |  | effect on Th1, Th2, iTreg differentiation [3]: preferentially impaired Th1 and Th2 differentiation; stress response pathway: eIF2α phosphorylation, ATF4 expression, Xbp-1 splicing ([5]; 10 nM HF or 1 μg/ml tunicamycin): induced eIF2α phosphorylation and ATF4 expression together with Xbp-1 splicing
15 | O=C(CC1NCCCC1O)Cn1cnc2ccccc2c1=O (stereo not shown) [Compound 3, febrifugine] | ++ |  | ++ | Inhibition of Th17 differentiation [6]: ++
16 | C#Cc1cc2ncn(CC(=O)CC3NCCCC3O)c(=O)c2cc1Cl (stereo not shown) [MAZ1320] |  | selectively inhibit the differentiation of Th17 cells |  | effect on Th1, Th2, iTreg differentiation [3]: without inhibiting Th1 differentiation
